How the values were obtained:
Test in all cases: SelectScreen Z'LYTE kinase profiling
Assay type in all cases: biochemical
Settings in all cases: ATP at apparent KM
[1] = target: RPS6KA1 (RSK1) (Homo sapiens, UniProt Q15418)
Protocol: (§1) protein kinases at a compound concentration of 1 µM. Measurements were performed in duplicates
(§2) and at the particular apparent ATP KM of each individual kinase employing the activity based Z’LYTE®
(§3) kinase assay of the SelectScreen® Kinase Profiling Services (ThermoFisher Scientific).
(§4) kinases at a compound concentration of 1 µM. Measurements were performed in duplicates and at
(§5) the particular apparent ATP KM of each individual kinase employing the activity based Z’LYTE® kinase
(§6) assay of the SelectScreen® Kinase Profiling Services (ThermoFisher Scientific).

[2] = target: T1, PRKCZ (PKC zeta) (Homo sapiens, UniProt Q05513)
T1 sequence (Q05513 1-592): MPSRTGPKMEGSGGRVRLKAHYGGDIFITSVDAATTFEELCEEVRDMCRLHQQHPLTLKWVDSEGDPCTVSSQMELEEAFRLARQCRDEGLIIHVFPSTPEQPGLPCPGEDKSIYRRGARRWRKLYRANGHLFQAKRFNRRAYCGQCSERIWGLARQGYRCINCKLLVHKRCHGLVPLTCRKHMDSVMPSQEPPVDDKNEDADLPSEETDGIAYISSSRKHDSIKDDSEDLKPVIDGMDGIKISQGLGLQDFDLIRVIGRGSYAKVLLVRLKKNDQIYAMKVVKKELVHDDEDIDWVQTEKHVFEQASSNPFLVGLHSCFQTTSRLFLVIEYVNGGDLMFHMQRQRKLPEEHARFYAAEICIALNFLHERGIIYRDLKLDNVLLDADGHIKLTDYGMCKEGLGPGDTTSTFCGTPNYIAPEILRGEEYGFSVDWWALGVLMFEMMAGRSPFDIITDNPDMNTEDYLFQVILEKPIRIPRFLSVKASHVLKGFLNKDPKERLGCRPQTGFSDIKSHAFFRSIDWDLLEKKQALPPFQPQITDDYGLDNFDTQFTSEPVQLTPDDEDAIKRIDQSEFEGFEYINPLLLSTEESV
Protocol: as §1, §2, §3, §4, §5, §6

[3] = target: MET (cMet) (Homo sapiens, UniProt P08581)
MET (cMet), sequence (P08581 25-1390): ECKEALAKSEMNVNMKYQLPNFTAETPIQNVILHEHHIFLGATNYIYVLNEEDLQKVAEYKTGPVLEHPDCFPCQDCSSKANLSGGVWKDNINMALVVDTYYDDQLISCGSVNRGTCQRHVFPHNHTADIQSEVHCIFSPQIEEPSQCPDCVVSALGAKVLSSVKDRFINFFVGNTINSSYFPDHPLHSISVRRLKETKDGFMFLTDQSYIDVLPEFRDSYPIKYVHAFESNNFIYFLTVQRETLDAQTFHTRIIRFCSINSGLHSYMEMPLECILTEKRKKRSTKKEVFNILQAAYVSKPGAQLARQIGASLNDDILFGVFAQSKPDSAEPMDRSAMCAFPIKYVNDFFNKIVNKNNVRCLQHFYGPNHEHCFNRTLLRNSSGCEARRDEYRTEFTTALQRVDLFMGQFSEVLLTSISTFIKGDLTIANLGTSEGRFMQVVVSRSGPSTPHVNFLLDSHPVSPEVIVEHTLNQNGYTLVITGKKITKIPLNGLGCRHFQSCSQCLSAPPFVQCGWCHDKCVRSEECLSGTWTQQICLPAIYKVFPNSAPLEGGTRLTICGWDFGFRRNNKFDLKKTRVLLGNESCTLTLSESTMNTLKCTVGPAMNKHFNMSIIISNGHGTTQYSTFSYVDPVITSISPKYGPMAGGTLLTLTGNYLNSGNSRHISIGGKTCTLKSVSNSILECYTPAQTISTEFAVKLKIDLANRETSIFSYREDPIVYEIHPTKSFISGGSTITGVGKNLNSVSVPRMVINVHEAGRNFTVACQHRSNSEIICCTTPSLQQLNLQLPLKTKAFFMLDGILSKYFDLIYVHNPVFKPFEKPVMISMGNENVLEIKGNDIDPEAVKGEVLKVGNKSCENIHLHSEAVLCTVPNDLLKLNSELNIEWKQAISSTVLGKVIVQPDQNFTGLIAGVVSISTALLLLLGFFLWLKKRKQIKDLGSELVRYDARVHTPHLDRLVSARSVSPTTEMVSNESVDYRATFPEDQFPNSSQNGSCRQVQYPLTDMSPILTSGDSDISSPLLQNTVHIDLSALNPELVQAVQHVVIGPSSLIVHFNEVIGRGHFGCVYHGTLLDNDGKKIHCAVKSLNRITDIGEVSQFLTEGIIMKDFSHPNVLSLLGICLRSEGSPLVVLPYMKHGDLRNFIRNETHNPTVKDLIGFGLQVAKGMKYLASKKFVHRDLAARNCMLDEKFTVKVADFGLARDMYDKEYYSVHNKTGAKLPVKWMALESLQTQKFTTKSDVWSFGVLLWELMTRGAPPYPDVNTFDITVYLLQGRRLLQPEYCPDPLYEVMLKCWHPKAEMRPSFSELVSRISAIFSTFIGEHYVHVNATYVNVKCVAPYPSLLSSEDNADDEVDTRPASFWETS
Protocol: as §1, §2, §3, §4, §5, §6

[4] = target: MAPKAPK3 (Homo sapiens, UniProt Q16644)
MAPKAPK3, sequence (Q16644 whole entry): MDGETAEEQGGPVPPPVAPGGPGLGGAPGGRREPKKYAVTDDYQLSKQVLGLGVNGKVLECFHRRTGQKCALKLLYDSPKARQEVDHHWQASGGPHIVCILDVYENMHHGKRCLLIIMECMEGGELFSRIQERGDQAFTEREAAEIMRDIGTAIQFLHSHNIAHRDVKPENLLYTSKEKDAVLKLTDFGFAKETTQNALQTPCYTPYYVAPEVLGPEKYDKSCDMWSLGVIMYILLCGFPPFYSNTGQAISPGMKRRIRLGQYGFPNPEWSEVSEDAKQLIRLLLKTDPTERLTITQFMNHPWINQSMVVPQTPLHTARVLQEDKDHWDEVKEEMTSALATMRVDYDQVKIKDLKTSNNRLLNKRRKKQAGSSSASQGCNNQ
Protocol: as §1, §2, §3, §4, §5, §6

[5] = target: T2, SGKL (SGK3) (Homo sapiens, UniProt Q96BR1)
T2 sequence (Q96BR1 1-496): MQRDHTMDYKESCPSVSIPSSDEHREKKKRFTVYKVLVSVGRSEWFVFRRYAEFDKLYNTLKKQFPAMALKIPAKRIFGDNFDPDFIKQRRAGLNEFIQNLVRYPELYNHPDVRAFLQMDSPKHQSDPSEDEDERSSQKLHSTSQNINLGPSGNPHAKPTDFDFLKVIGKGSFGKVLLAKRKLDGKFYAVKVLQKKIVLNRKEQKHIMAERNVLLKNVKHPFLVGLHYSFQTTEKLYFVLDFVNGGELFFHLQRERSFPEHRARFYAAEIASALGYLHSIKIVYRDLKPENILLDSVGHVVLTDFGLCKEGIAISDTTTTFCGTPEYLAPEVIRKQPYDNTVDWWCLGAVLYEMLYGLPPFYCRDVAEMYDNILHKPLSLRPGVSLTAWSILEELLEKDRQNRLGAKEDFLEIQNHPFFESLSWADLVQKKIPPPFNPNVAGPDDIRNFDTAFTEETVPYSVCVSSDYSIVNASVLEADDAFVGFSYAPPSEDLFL
Protocol: as §1, §2, §3, §4, §5, §6

[6] = target: AURKB (Aurora B) (Homo sapiens, UniProt Q96GD4)
AURKB (Aurora B), sequence (Q96GD4 whole entry): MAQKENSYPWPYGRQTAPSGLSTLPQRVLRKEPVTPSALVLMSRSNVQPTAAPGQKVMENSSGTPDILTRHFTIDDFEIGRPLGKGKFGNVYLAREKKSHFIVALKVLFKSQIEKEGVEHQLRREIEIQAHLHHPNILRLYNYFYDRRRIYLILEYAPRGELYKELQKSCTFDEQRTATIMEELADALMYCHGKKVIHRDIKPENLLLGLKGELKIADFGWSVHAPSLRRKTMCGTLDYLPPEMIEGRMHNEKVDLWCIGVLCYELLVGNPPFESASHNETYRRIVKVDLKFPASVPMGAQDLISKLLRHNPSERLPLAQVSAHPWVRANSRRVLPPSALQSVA
Protocol: as §1, §2, §3, §4, §5, §6

[7] = target: EGFR (ErbB1) (Homo sapiens, UniProt P00533)
Protocol: as §1, §2, §3, §4, §5, §6

[8] = target: PRKCA (PKC alpha) (Homo sapiens, UniProt P17252)
Protocol: as §1, §2, §3, §4, §5, §6

[9] = target: PRKCB1 (PKC beta I) (Homo sapiens, UniProt P05771)
PRKCB1 (PKC beta I), sequence (P05771 whole entry): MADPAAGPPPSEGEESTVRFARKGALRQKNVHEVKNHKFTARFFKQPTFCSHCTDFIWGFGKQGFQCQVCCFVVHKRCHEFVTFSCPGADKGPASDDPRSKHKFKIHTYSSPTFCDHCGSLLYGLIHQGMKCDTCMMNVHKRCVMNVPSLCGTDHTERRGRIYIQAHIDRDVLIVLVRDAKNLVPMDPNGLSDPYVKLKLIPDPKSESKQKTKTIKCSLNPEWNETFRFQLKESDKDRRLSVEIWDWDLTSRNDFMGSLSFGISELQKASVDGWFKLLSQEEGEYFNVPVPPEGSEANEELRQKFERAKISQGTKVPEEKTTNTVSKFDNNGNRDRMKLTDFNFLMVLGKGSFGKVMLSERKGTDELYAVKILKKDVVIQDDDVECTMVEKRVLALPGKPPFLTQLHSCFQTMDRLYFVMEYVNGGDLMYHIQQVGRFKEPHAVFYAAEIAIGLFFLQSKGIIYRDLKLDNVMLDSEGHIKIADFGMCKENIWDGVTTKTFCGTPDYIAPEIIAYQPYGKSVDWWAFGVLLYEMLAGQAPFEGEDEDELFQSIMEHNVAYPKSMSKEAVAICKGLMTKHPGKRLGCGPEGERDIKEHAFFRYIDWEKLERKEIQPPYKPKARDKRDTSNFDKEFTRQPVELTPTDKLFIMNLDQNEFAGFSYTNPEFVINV
Protocol: as §1, §2, §3, §4, §5, §6

[10] = target: T3, ITK (Homo sapiens, UniProt Q08881)
T3 sequence (Q08881 1-620): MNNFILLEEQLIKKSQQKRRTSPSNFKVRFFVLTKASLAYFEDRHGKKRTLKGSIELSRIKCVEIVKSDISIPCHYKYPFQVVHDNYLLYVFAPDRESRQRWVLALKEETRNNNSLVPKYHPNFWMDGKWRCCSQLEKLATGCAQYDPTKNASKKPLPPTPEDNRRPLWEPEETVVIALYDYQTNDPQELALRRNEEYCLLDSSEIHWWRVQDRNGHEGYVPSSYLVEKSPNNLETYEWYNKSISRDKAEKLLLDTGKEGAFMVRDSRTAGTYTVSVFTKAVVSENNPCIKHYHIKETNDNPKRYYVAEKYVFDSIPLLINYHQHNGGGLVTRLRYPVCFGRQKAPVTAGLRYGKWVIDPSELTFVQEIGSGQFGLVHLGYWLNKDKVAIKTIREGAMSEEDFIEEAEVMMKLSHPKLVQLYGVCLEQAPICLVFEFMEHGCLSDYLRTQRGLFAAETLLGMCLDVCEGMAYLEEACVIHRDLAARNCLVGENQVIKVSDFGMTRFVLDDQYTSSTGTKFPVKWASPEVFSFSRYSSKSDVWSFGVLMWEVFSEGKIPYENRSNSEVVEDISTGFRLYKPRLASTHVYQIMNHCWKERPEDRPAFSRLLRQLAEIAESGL
Protocol: as §1, §2, §3, §4, §5, §6

[11] = target: T4, TBK1 (Homo sapiens, UniProt Q9UHD2)
T4 sequence (Q9UHD2 1-729): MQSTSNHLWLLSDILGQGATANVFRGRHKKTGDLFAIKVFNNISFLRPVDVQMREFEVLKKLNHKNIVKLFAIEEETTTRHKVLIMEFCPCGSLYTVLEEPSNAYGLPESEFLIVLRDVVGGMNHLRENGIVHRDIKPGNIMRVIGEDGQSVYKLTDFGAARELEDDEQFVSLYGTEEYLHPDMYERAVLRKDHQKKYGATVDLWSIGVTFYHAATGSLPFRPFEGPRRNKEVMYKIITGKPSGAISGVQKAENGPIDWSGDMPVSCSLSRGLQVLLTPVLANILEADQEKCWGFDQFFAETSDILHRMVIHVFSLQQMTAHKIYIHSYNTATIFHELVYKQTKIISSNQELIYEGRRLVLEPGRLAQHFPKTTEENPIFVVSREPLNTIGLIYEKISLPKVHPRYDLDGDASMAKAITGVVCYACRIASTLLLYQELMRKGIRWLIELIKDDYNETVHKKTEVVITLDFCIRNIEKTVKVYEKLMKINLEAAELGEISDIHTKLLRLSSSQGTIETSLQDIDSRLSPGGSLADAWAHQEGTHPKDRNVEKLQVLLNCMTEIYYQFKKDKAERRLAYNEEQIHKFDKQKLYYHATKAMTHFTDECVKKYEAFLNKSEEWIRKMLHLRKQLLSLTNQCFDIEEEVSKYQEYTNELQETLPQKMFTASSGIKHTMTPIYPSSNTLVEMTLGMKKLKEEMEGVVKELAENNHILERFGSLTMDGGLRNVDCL

RPS6KA1 (RSK1), sequence (Q15418 whole entry): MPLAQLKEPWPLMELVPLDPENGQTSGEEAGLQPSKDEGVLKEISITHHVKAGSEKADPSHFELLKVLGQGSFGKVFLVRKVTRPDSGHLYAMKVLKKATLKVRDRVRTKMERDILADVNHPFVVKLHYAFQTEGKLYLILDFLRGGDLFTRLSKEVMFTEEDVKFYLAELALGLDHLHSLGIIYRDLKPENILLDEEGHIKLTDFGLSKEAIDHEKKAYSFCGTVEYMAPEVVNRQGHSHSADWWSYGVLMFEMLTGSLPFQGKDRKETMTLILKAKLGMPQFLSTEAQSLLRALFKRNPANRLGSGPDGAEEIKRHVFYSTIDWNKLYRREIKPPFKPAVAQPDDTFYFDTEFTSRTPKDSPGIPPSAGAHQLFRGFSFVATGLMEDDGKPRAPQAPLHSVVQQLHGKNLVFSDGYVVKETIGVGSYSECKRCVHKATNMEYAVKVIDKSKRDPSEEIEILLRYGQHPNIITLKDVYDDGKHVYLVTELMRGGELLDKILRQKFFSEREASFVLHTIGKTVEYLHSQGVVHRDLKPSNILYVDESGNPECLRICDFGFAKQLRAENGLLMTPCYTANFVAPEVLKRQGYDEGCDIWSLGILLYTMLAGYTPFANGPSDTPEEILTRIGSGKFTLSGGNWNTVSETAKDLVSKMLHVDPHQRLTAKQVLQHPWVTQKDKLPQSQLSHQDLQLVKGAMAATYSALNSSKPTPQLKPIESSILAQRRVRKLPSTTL

SMILES	inhibition at 1 µM [1] [%]	inhibition at 1 µM [2] [%]	inhibition at 1 µM [3] [%]	inhibition at 1 µM [4] [%]	inhibition at 1 µM [5] [%]	inhibition at 1 µM [6] [%]	inhibition at 1 µM [7] [%]	inhibition at 1 µM [8] [%]	inhibition at 1 µM [9] [%]	inhibition at 1 µM [10] [%]	inhibition at 1 µM [11] [%]
C=CC(=O)Nc1cccc(C(=O)NC2CCN(Cc3ccc(-c4nc5cc[nH]c(=O)c5cc4-c4ccccc4)cc3)CC2)c1 [30b]	27	-4	0	23	-4	2	1	27	6	1	5
C=CC(=O)Nc1ccc2c(c1)n(C1CCN(Cc3ccc(-c4nc5cc[nH]c(=O)c5cc4-c4ccccc4)cc3)CC1)c(=O)n2C [24b]	14	-3	1	23	-5	0	-8	23	7	-9	4
C=CC(=O)Nc1cc(NC(=O)NC2CCN(Cc3ccc(-c4nc5cc[nH]c(=O)c5cc4-c4ccccc4)cc3)CC2)ccc1Cl [compound 27]	22	-14	4	23	-1	2	2	16	6	8	3
